Measured values reported in patent publication US20250352658A1, “COMBINATION THERAPY USING ANTIBODY-DRUG CONJUGATES” (ADC THERAPEUTICS SA, priority 2021, published 2025).
Square brackets hold non-standard residues; d marks the D form. Peptide text beside a SMILES is read from it. * marks the point of attachment. Dolaproine = CO[C@@H]([C@@H]1CCCN1)[C@@H](C)C(=O)O; Dil = CC[C@H](C)[C@H](NC)[C@@H](CC(=O)O)OC; X1 = C[C@@H](N*)[C@@H](O)c1ccccc1; NMeV = CN[C@H](C(=O)O)C(C)C

Test system: TMD8 cells
Test: CellTiterGlo viability assay, SG3199 and MMAE combination, TMD8
Assay type: cell-based
Settings: for Fa (fraction affected) / CI (combination index): 24 hours
Method: We tested a combination of the warheads alone used in CD19xADC (PBD SG3199) and CD79bxADC (monomethyl auristatin E (MMAE)). This was performed essentially as per Example 1, in TMD8 cells. Cells were seeded at a density of 50,000 cells/mL. […]
Cells were incubated for 24 hours and then viability was measured with CellTiterGlo assay.
For analysis of the results, data were first blank corrected (average of blank of the 3 replicates was subtracted from each data value). For GraphPad analysis, each replicate was normalized over the untreated cells (average of the 3 replicates). Data were analysed by GraphPad Prism to generate a dose response curve with Log drug concentration on X-axis and cell viability (%) on Y-axis. For CalcuSyn analysis, the average of the 3 replicates was corrected over the untreated cells.

[1] = SG3199 0.06 pM + MMAE 0.08 ng/ml
[2] = SG3199 0.06 pM + MMAE 0.2 ng/ml
[3] = SG3199 0.06 pM + MMAE 0.6 ng/ml
[4] = SG3199 0.06 pM + MMAE 1.9 ng/ml
[5] = SG3199 0.06 pM + MMAE 5.6 ng/ml
[6] = SG3199 0.23 pM + MMAE 0.08 ng/ml
[7] = SG3199 0.23 pM + MMAE 0.2 ng/ml
[8] = SG3199 0.23 pM + MMAE 0.6 ng/ml
[9] = SG3199 0.23 pM + MMAE 1.9 ng/ml
[10] = SG3199 0.23 pM + MMAE 5.6 ng/ml
[11] = SG3199 0.90 pM + MMAE 0.08 ng/ml
[12] = SG3199 0.90 pM + MMAE 0.2 ng/ml
[13] = SG3199 0.90 pM + MMAE 0.6 ng/ml
[14] = SG3199 0.90 pM + MMAE 1.9 ng/ml
[15] = SG3199 0.90 pM + MMAE 5.6 ng/ml
[16] = SG3199 3.6 pM + MMAE 0.08 ng/ml
[17] = SG3199 14.4 pM + MMAE 0.08 ng/ml
[18] = SG3199 14.4 pM + MMAE 0.2 ng/ml
[19] = SG3199 14.4 pM + MMAE 0.6 ng/ml
[20] = SG3199 14.4 pM + MMAE 1.9 ng/ml
[21] = SG3199 14.4 pM + MMAE 5.6 ng/ml
[22] = SG3199 57.5 pM + MMAE 0.08 ng/ml
[23] = SG3199 57.5 pM + MMAE 0.2 ng/ml
[24] = SG3199 57.5 pM + MMAE 0.6 ng/ml
[25] = SG3199 57.5 pM + MMAE 1.9 ng/ml
[26] = SG3199 57.5 pM + MMAE 5.6 ng/ml
[27] = SG3199 230 pM + MMAE 0.08 ng/ml

CC[C@H](C)[C@@H]([C@@H](CC(=O)N1CCC[C@H]1[C@H](OC)[C@@H](C)C(=O)N[C@H](C)[C@@H](O)c1ccccc1)OC)N(C)C(=O)[C@@H](NC(=O)[C@@H](NC)C(C)C)C(C)C [MMAE, monomethyl auristatin E, reference compound] (H-[NMeV]V[Dil][Dolaproine]-X1)
Fa (fraction affected) (MMAE 0.08 ng/ml alone (SG3199 0)): 0.11 | Fa (fraction affected) (MMAE 0.2 ng/ml alone (SG3199 0)): 0.17 | Fa (fraction affected) (MMAE 0.6 ng/ml alone (SG3199 0)): 0.27 | Fa (fraction affected) (MMAE 1.9 ng/ml alone (SG3199 0)): 0.29 | Fa (fraction affected) (MMAE 5.6 ng/ml alone (SG3199 0)): 0.38

CC[C@H](C)[C@@H]([C@@H](CC(=O)N1CCC[C@H]1[C@H](OC)[C@@H](C)C(=O)N[C@H](C)[C@@H](O)c1ccccc1)OC)N(C)C(=O)[C@@H](NC(=O)[C@@H](NC)C(C)C)C(C)C.COc1cc2c(cc1OCCCCCOc1cc3c(cc1OC)C(=O)N1C=C(C)C[C@H]1C=N3)N=C[C@@H]1CC(C)=CN1C2=O [SG3199 + MMAE] (H-[NMeV]V[Dil][Dolaproine]-X1)
CI (combination index) [1]: 1.65 | Fa (fraction affected) [1]: 0.12 | CI (combination index) [2]: 2.06 | Fa (fraction affected) [2]: 0.13 | CI (combination index) [3]: 0.53 | Fa (fraction affected) [3]: 0.27 | CI (combination index) [4]: 0.79 | Fa (fraction affected) [4]: 0.32 | CI (combination index) [5]: 1.23 | Fa (fraction affected) [5]: 0.38 | CI (combination index) [6]: 434.19 | Fa (fraction affected) [6]: 0.05 | CI (combination index) [7]: 2.22 | Fa (fraction affected) [7]: 0.14 | CI (combination index) [8]: 0.40 | Fa (fraction affected) [8]: 0.29 | CI (combination index) [9]: 1.18 | Fa (fraction affected) [9]: 0.29 | CI (combination index) [10]: 0.98 | Fa (fraction affected) [10]: 0.40 | CI (combination index) [11]: 0.58 | Fa (fraction affected) [11]: 0.19 | CI (combination index) [12]: 2.08 | Fa (fraction affected) [12]: 0.16 | CI (combination index) [13]: 0.29 | Fa (fraction affected) [13]: 0.31 | CI (combination index) [14]: 0.83 | Fa (fraction affected) [14]: 0.32 | CI (combination index) [15]: 0.85 | Fa (fraction affected) [15]: 0.41 | CI (combination index) [16]: 5.16 | Fa (fraction affected) [16]: 0.16 | CI (combination index) (SG3199 3.6 pM + MMAE 0.2 ng/ml): 69.07 | Fa (fraction affected) (SG3199 3.6 pM + MMAE 0.2 ng/ml): 0.11 | CI (combination index) (SG3199 3.6 pM + MMAE 0.6 ng/ml): 1.26 | Fa (fraction affected) (SG3199 3.6 pM + MMAE 0.6 ng/ml): 0.23 | CI (combination index) (SG3199 3.6 pM + MMAE 1.9 ng/ml): 1.36 | Fa (fraction affected) (SG3199 3.6 pM + MMAE 1.9 ng/ml): 0.28 | CI (combination index) (SG3199 3.6 pM + MMAE 5.6 ng/ml): 1.93 | Fa (fraction affected) (SG3199 3.6 pM + MMAE 5.6 ng/ml): 0.34 | CI (combination index) [17]: 12.16 | Fa (fraction affected) [17]: 0.17 | CI (combination index) [18]: 18.45 | Fa (fraction affected) [18]: 0.16 | CI (combination index) [19]: 0.60 | Fa (fraction affected) [19]: 0.29 | CI (combination index) [20]: 1.32 | Fa (fraction affected) [20]: 0.29 | CI (combination index) [21]: 1.12 | Fa (fraction affected) [21]: 0.39 | CI (combination index) [22]: 0.22 | Fa (fraction affected) [22]: 0.34 | CI (combination index) [23]: 0.39 | Fa (fraction affected) [23]: 0.33 | CI (combination index) [24]: 0.23 | Fa (fraction affected) [24]: 0.37 | CI (combination index) [25]: 0.30 | Fa (fraction affected) [25]: 0.42 | CI (combination index) [26]: 0.37 | Fa (fraction affected) [26]: 0.49 | CI (combination index) [27]: 0.03 | Fa (fraction affected) [27]: 0.47 | CI (combination index) (SG3199 230 pM + MMAE 0.2 ng/ml): 0.02 | Fa (fraction affected) (SG3199 230 pM + MMAE 0.2 ng/ml): 0.51 | CI (combination index) (SG3199 230 pM + MMAE 0.6 ng/ml): 0.03 | Fa (fraction affected) (SG3199 230 pM + MMAE 0.6 ng/ml): 0.54 | CI (combination index) (SG3199 230 pM + MMAE 1.9 ng/ml): 0.04 | Fa (fraction affected) (SG3199 230 pM + MMAE 1.9 ng/ml): 0.59 | CI (combination index) (SG3199 230 pM + MMAE 5.6 ng/ml): 0.09 | Fa (fraction affected) (SG3199 230 pM + MMAE 5.6 ng/ml): 0.62 | median Chou-Talalay combination index (CI) (TMD8, 24 hours, <0.9 indicates synergy): 0.85

COc1cc2c(cc1OCCCCCOc1cc3c(cc1OC)C(=O)N1C=C(C)C[C@H]1C=N3)N=C[C@@H]1CC(C)=CN1C2=O [SG3199, reference compound]
Fa (fraction affected) (SG3199 0.06 pM alone (MMAE 0)): 0.12 | Fa (fraction affected) (SG3199 0.23 pM alone (MMAE 0)): 0.16 | Fa (fraction affected) (SG3199 0.90 pM alone (MMAE 0)): 0.15 | Fa (fraction affected) (SG3199 3.6 pM alone (MMAE 0)): 0.15 | Fa (fraction affected) (SG3199 14.4 pM alone (MMAE 0)): 0.19 | Fa (fraction affected) (SG3199 57.5 pM alone (MMAE 0)): 0.23 | Fa (fraction affected) (SG3199 230 pM alone (MMAE 0)): 0.46
